Laboratory results reported in patent US9023821B2, “Use of MicroRNA for treating diseases associated with a dysfunction of the cilia in multiciliated epithelial cells” (Centre National de la Recherche Scientifique, priority 2009, dated 2015).

Experiments:
[1] = test system: human airway epithelial cells (HAECs); assay: High-throughput sequencing (HTS) of miRNAs at four stages of differentiation of HAECs; conditions: for Modulation (ratio of the level of intensity of expression in log2 in two stages of differentiation) measured by high-throughput sequencing, D7 − D0 / Modulation (ratio of the level of intensity of expression in log2 in two stages of differentiation) measured by high-throughput sequencing, FC − D7 / Modulation (ratio of the level of intensity of expression in log2 in two stages of differentiation) measured by high-throughput sequencing, WD − D0 / Modulation (ratio of the level of intensity of expression in log2 in two stages of differentiation) measured by high-throughput sequencing, WD − FC / Level of intensity of expression in log2 measured by high-throughput sequencing, D0 / Level of intensity of expression in log2 measured by high-throughput sequencing, D7 / Level of intensity of expression in log2 measured by high-throughput sequencing, FC / Level of intensity of expression in log2 measured by high-throughput sequencing, WD: Table VI; for Level of intensity of expression in log2 At the differentiated stage (WD) measured in HTS: healthy human airway epithelial tissue; for Level of intensity of expression in log2 measured by high-throughput sequencing, D0: stage D0; for Level of intensity of expression in log2 measured by high-throughput sequencing, D7: stage D7; for Level of intensity of expression in log2 measured by high-throughput sequencing, FC: stage FC; for Level of intensity of expression in log2 At the differentiated stage (WD) measured in HTS / Level of intensity of expression in log2 measured by high-throughput sequencing, WD: stage WD
How it was run: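 Total RNA including small RNAs was taken from air-liquid interface cultures at ALI-D0, ALI-D7, ALI-FC (first cilia, ~14 days) and ALI-WD (~21 days). SOLiD small-RNA libraries were sequenced, and 5p/3p reads were normalized to 10^6 sequences and expressed as percentage abundance.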

[2] = test system: human airway epithelial cells (HAECs); assay: Agilent miRNA chips, miRNA expression at four stages of differentiation of HAECs; conditions: for Modulation (ratio of the level of intensity of expression in log2 in two stages of differentiation) measured with the Agilent chips, D7 − D0 / Modulation (ratio of the level of intensity of expression in log2 in two stages of differentiation) measured with the Agilent chips, FC − D7 / Modulation (ratio of the level of intensity of expression in log2 in two stages of differentiation) measured with the Agilent chips, WD − D0 / Modulation (ratio of the level of intensity of expression in log2 in two stages of differentiation) measured with the Agilent chips, WD − FC / Level of intensity of expression in log2 measured with the Agilent chips, D0 / Level of intensity of expression in log2 measured with the Agilent chips, D7 / Level of intensity of expression in log2 measured with the Agilent chips, FC / Level of intensity of expression in log2 measured with the Agilent chips, WD: Table VI; for Modulation (ratio of the level of intensity of expression in log2 at two stages of differentiation), FC − D7 / Modulation (ratio of the level of intensity of expression in log2 at two stages of differentiation), WD − FC: Agilent miRNA chips, Table V; for Level of intensity of expression in log2 measured with the Agilent chips, D0: stage D0; for Level of intensity of expression in log2 measured with the Agilent chips, D7: stage D7; for Level of intensity of expression in log2 measured with the Agilent chips, FC: stage FC; for Level of intensity of expression in log2 measured with the Agilent chips, WD: stage WD
How it was run: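 RNA from the same patients' HAECs at four differentiation stages was labelled and hybridized with the Agilent miRNA labeling and hybridization kit. Chips were Human miRNA Microarray v2, with 866 human and 89 viral miRNAs (miRBase v12.0). Profiles were compared with high-throughput sequencing data.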

[3] = test system: basal cells and pyramidal cells of the airway epithelium; assay: miRNA expression in sorted basal cells versus pyramidal cells (ciliated + secretory), HTS and Agilent chips; design: species or system human; conditions: for Modulation of expression of the miRNAs in pyramidal cells (323(−)) relative to basal cells 323(+): HTS and Agilent chips; for Intensity of the level of expression in log2 in pyramidal cells (323(−)): pyramidal cells (ciliated + secretory)
How it was run: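 miRNA repertoires measured by high-throughput sequencing or Agilent arrays on total RNA from sorted airway epithelial populations of 3 donors. Sorting used CD151-PE and anti-tissue factor-FITC: double-positive basal versus double-negative ciliated/secretory cells, with DAPI-stained and aggregated cells excluded.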

Substance	Modulation (ratio of the level of intensity of expression in log2 in two stages of differentiation) measured by high-throughput sequencing, D7 − D0 [1]	Modulation (ratio of the level of intensity of expression in log2 in two stages of differentiation) measured by high-throughput sequencing, FC − D7 [1]	Modulation (ratio of the level of intensity of expression in log2 in two stages of differentiation) measured by high-throughput sequencing, WD − D0 [1]	Modulation (ratio of the level of intensity of expression in log2 in two stages of differentiation) measured by high-throughput sequencing, WD − FC [1]	Level of intensity of expression in log2 At the differentiated stage (WD) measured in HTS [1]	Level of intensity of expression in log2 measured by high-throughput sequencing, D0 [1]	Level of intensity of expression in log2 measured by high-throughput sequencing, D7 [1]	Level of intensity of expression in log2 measured by high-throughput sequencing, FC [1]	Level of intensity of expression in log2 measured by high-throughput sequencing, WD [1]	Modulation (ratio of the level of intensity of expression in log2 in two stages of differentiation) measured with the Agilent chips, D7 − D0 [2]	Modulation (ratio of the level of intensity of expression in log2 in two stages of differentiation) measured with the Agilent chips, FC − D7 [2]	Modulation (ratio of the level of intensity of expression in log2 in two stages of differentiation) measured with the Agilent chips, WD − D0 [2]	Modulation (ratio of the level of intensity of expression in log2 in two stages of differentiation) measured with the Agilent chips, WD − FC [2]	Level of intensity of expression in log2 measured with the Agilent chips, D0 [2]	Level of intensity of expression in log2 measured with the Agilent chips, D7 [2]	Level of intensity of expression in log2 measured with the Agilent chips, FC [2]	Level of intensity of expression in log2 measured with the Agilent chips, WD [2]	Modulation of expression of the miRNAs in pyramidal cells (323(−)) relative to basal cells 323(+) [3]	Intensity of the level of expression in log2 in basal cells (323(+)) [3]	Intensity of the level of expression in log2 in pyramidal cells (323(−)) [3]	other results
hsa-miR-374a: human miRNA, SEQ ID No. 42 (UUAUAAUACAACCUGAUAAGUG; expressed or natural sequence; listed as Homo sapiens)	−0.33 log2	1.74 log2	2.16 log2	0.74 log2	11.87 log2	0.62 log2	0.30 log2	2.04 log2	2.78 log2	1.41 log2	−0.54 log2	0.79 log2	−0.08 log2	7.04 log2	8.45 log2	7.91 log2	7.83 log2	−1.04	4.26 log2	3.22 log2	Modulation (ratio of the level of intensity of expression in log2 at two stages of differentiation), FC − D7 [2]: −0.54 log2; Modulation (ratio of the level of intensity of expression in log2 at two stages of differentiation), WD − FC [2]: −0.08 log2
hsa-miR-378: human miRNA, SEQ ID No. 43 (ACUGGACUUGGAGUCAGAAGG; expressed or natural sequence; listed as Homo sapiens)	2.15 log2	−0.26 log2	1.50 log2	−0.39 log2	11.70 log2	10.37 log2	12.53 log2	12.26 log2	11.87 log2	3.23 log2	−0.81 log2	2.16 log2	−0.26 log2	4.38 log2	7.61 log2	6.80 log2	6.54 log2	−2.43	4.11 log2	1.68 log2	Modulation (ratio of the level of intensity of expression in log2 in two stages of differentiation), D7 − D0 ([1]; HTS): 2.15 log2; Modulation (ratio of the level of intensity of expression in log2 in two stages of differentiation), FC − D7 ([1]; HTS): −0.26 log2; Modulation (ratio of the level of intensity of expression in log2 in two stages of differentiation), WD − FC ([1]; HTS): −0.39 log2; Abundance (%), D0 ([1]; HTS, ALI-D0): 0.29%; Abundance (%), D7 ([1]; HTS, ALI-D7): 1.30%; Abundance (%), FC ([1]; HTS, ALI-FC): 1.04%; Abundance (%), WD ([1]; HTS, ALI-WD): 0.61%
hsa-miR-425: human miRNA, SEQ ID No. 44 (AAUGACACGAUCACUCCCGUUGA; expressed or natural sequence; listed as Homo sapiens)	0.42 log2	0.74 log2	1.12 log2	−0.04 log2	9.53 log2	10.58 log2	11.01 log2	11.75 log2	11.70 log2	1.59 log2	0.19 log2	1.57 log2	−0.21 log2	6.61 log2	8.21 log2	8.39 log2	8.18 log2	0.70	4.52 log2	5.22 log2	Modulation (ratio of the level of intensity of expression in log2 at two stages of differentiation), FC − D7 [2]: 0.19 log2; Modulation (ratio of the level of intensity of expression in log2 at two stages of differentiation), WD − FC [2]: −0.21 log2
hsa-miR-429: human miRNA, SEQ ID No. 45 (UAAUACUGUCUGGUAAAACCGU; expressed or natural sequence; listed as Homo sapiens)	0.42 log2	0.14 log2	1.30 log2	0.74 log2	15.11 log2	8.23 log2	8.65 log2	8.79 log2	9.53 log2	1.71 log2	0.14 log2	1.95 log2	0.10 log2	7.97 log2	9.68 log2	9.82 log2	9.93 log2	−0.31	6.92 log2	6.61 log2	Modulation (ratio of the level of intensity of expression in log2 at two stages of differentiation), FC − D7 [2]: 0.14 log2; Modulation (ratio of the level of intensity of expression in log2 at two stages of differentiation), WD − FC [2]: 0.10 log2
